The source of these data is publication PMC12239085, “Silver(I) Ions Bridging Oxadiazole-2-thione Derivatives with Mitochondriotropic Agents: A Promising Strategy for Potent Anticancer Chemotherapy” (Inorganic Chemistry, 2025).

Data set [1] deals with normal human fetal lung fibroblast (MRC-5) cells. Description: SRB toxicity assay, MRC-5. The data set is classed as cell-based. The settings on record: Homo sapiens, MRC5, 48 h incubation. Here is the method: (§1) Stock solutions of compounds 1a–5a and 1–5 (0.01 M) in DMSO were freshly prepared and subsequently diluted with cell culture media to appropriate concentrations for various biological experiments. These included the assessment of cell viability using the SRB assay, micronucleus testing, cell morphology studies, cell cycle arrest, AO/EB staining, and mitochondrial membrane permeabilization tests. For CT-DNA binding studies, experiments were conducted in DMSO/buffer solutions. All biological experiments were performed in triplicate or more.
(§2) Stock solutions of 1a–5a and 1–5 (0.01 M) were dissolved in DMSO and subsequently diluted with cell culture medium to the desired concentrations (0.5–30 μM). MCF-7, MDA MB-231, and MRC-5 cells were plated in 96-well flat-bottom microplates at various densities: 6000, 8000, and 2000 cells per well, respectively. The cells were incubated for 24 h at 37 °C and then exposed to 1a–5a and 1–5 for 48 h. ,–
(§3) Cytotoxicity was evaluated using the SRB colorimetric assay at λ = 568 nm, with cell survival percentages calculated relative to the untreated control cells. Detailed information on the SRB assay procedure can be found in the previous publication. ,–
(The SRB assay estimates cell density from bound dye.)

The subject of data set [2] is MCF-7 human breast adenocarcinoma cells (hormone-dependent). The data set is described as follows: SRB antiproliferative assay, MCF-7. The data set is classed as cell-based. Particulars: for IC50: Homo sapiens, MCF7, SRB assay, 48 h incubation; for (%) cells viability: MCF-7 cells, ligands with IC50 higher than 30 μM. Here is the method: as §1, §2, §3
For data set [3], the system named is MDA-MB-231 human breast adenocarcinoma cells (hormone-independent). Description: SRB antiproliferative assay, MDA-MB-231. The data set is classed as cell-based. Particulars: Homo sapiens, MDA-MB-231, 48 h incubation. How it is done: as §1, §2, §3
Data set [4] relates to MCF-7 human breast adenocarcinoma cells (hormone-dependent). The settings on record: 48 h incubation; ref not 'this study', ref number not given; cited from earlier work.
The subject of data set [5] is normal human fetal lung fibroblast (MRC-5) cells. On the set-up: method as in column not 'this study', ref number not given. Particulars: 48 h incubation; ref not 'this study', ref number not given; cited from earlier work.
Data set [6] concerns MDA-MB-231 human breast adenocarcinoma cells (hormone-independent). Set-up: method as in column not 'this study', ref number not given. Particulars: 48 h incubation; ref not 'this study', ref number not given; cited from earlier work.
Another data set addresses T1, lipoxygenase (LOX) (Glycine max, UniProt P08170).
T1 sequence (P08170 1-839): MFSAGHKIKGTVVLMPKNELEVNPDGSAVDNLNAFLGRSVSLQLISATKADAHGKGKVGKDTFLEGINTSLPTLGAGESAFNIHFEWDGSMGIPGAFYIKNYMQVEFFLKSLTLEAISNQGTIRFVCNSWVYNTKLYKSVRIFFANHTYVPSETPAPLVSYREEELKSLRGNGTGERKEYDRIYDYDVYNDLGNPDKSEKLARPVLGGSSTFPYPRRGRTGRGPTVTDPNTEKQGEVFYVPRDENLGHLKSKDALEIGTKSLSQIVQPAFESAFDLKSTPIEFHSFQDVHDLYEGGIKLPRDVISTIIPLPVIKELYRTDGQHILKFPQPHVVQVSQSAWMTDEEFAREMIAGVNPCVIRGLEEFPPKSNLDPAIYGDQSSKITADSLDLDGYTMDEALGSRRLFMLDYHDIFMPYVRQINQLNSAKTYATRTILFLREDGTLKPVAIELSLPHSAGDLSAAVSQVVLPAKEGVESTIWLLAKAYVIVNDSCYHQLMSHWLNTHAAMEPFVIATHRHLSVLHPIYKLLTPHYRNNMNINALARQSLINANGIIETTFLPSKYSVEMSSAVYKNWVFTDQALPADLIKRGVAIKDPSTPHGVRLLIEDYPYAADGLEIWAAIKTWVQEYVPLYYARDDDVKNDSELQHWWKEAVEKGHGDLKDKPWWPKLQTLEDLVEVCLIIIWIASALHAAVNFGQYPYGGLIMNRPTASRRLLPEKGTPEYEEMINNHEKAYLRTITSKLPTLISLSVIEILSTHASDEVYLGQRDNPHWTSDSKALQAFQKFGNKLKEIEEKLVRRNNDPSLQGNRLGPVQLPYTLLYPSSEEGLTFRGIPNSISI
Particulars: cisplatin comparison; ref number not given; read-out: IC50 against LOX; cited from earlier work.

The next data set has as its system MRC-5 cells. Set-up: method as in number not given. The settings on record: cited from earlier work.
Data set [7] deals with MCF-7 cells. On the set-up: method as in number not given. Particulars: cisplatin comparison; ref number not given; cited from earlier work.
The test system of data set [8] is MCF-7 cells. On the set-up: method as in number not given. The settings on record: cisplatin comparison; ref number not given; cited from earlier work. The source holds these as a separate data set.
Data set [9] deals with nontumorigenic human breast epithelial cell line (MCF-10A). On the set-up: method as in column not 'this study', ref number not given. The settings on record: 48 h incubation; ref not 'this study', ref number not given; cited from earlier work.
The test system of data set [10] is MCF-7 cells. Set-up: method as in number not given. The settings on record: cisplatin comparison, ref number not given; cited from earlier work.

By IC50 is commonly meant the concentration that gives 50% inhibition.

Values joined by “and” are separate entries in the source; they are usually repeats but may differ in a detail not shown here. Equal values may be shown once. Read-outs that look alike come from different tables or passages of the source. A value given as a limit tells only on which side of the number the result lay.

In the case of `S=c1[nH]nc(-c2ccccc2)o1` [1a], the IC50 in data set [1], in data set [2] and in data set [3] was > 30 µM in each case. Further, the “(%) cells viability” value in data set [2] stood at 84.7%.

As to `Fc1ccccc1-c1nnc(S)o1` [2a], the IC50 in data set [1], in [2] and in data set [3] was > 30 µM in each case. Further, the “(%) cells viability” value in data set [2] is on record as 95.7%.

In the case of `Fc1ccc(-c2nnc(S)o2)cc1` [3a], the IC50 in data set [1], in data set [2] and in data set [3] was > 30 µM in each case. For the same compound, in data set [2], the “(%) cells viability” value was found to be 90.7%.

For `Sc1nnc(-c2ccccc2Cl)o1` [4a], the IC50 in data set [1], in [2] and in [3] was > 30 µM throughout. Also, the “(%) cells viability” value in [2] is reported as 80.3%.

For the compound `Sc1nnc(-c2cccc(Cl)c2)o1` [5a], the IC50 in data set [1], in [2] and in data set [3] was > 30 µM each time. Besides, in [2], the “(%) cells viability” value was 90.1%.

In the case of `c1ccc(P(c2ccccc2)c2ccccc2)cc1` [TPP, triphenylphosphine], the figures for the IC50 in [4], in [5] and in [6] were 28.9 ± 1.4 µM, > 30 µM and > 30 µM, respectively.

As for `N.N.[Cl][Pt][Cl]` [cisplatin], the IC50 was 65.9 µM at lipoxygenase (LOX); 5.5 ± 0.4 µM in data set [4]; 11 ± 3 µM in data set [9]; 1.1 ± 0.2 µM in data set [5]; 26.7 ± 1.1 µM in data set [6]. In addition, the “Percentage of MN” value in the data set on MRC-5 cells (control = 0.8, ref number not given) is reported as 1.6 (control = 0.8) %. Moreover, in the data set with MRC-5 cells (ref number not given), the “Relative ratio of MN toward its control” value was 2.0. For the same compound, the “Relative rate of MCF-7 cells in sub-G1 phase” value in the data set on MCF-7 cells [7] was 2.9. Besides, the “relative rate of apoptotic MCF-7 cells” value in the data set with MCF-7 cells [8] is 5.88 and 5.9. For the same compound, the “fluorescence quenching (MMP)” value with MCF-7 cells [10] is 54.9%.
